Experimental data published in ChEMBL document CHEMBL3769397, “A new GLP-1 analogue with prolonged glucose-lowering activity in vivo via backbone-based modification at the N-terminus” (Bioorg Med Chem, 2016).

What was measured:
[1] = molecular target: Glucagon-like peptide 1 receptor (Homo sapiens, UniProt P43220); experiment: Activation of human GLP1R expressed in HEK293 cells preincubated for 30 mins followed by addition of cAMP-d2 conjugate/cryptate conjugate incubated for 60 mins by fluorescence analysis; format: functional, cell-based
[2] = molecular target: T1, DPP4 (dipeptidyl peptidase 4) (Homo sapiens, UniProt P27487); experiment: Half life of compound assessed as recombinant human DPP4-mediated cleavage by RP-HPLC analysis; format: ADME
[3] = Retention time of compound over 30 mins by HPLC analysis; format: physicochemical; conditions: 0.5 h
[4] = molecular target: T1, DPP4 (dipeptidyl peptidase 4); experiment: Drug degradation assessed as recombinant human DPP4-mediated cleavage by measuring compound remaining after 1 hr by RP-HPLC analysis; format: ADME; conditions: read-out: Stability
[5] = molecular target: T1, DPP4 (dipeptidyl peptidase 4); experiment: Drug degradation assessed as recombinant human DPP4-mediated cleavage by measuring compound remaining after 2 hrs by RP-HPLC analysis; format: ADME; conditions: read-out: Stability
[6] = molecular target: T1, DPP4 (dipeptidyl peptidase 4); experiment: Drug degradation assessed as recombinant human DPP4-mediated cleavage by measuring compound remaining after 4 hrs by RP-HPLC analysis; format: ADME; conditions: read-out: Stability
[7] = molecular target: T1, DPP4 (dipeptidyl peptidase 4); experiment: Drug degradation assessed as recombinant human DPP4-mediated cleavage by measuring compound remaining after 8 hrs by RP-HPLC analysis; format: ADME; conditions: read-out: Stability
[8] = molecular target: T1, DPP4 (dipeptidyl peptidase 4); experiment: Drug degradation assessed as recombinant human DPP4-mediated cleavage by measuring compound remaining after 12 hrs by RP-HPLC analysis; format: ADME; conditions: read-out: Stability
[9] = molecular target: T1, DPP4 (dipeptidyl peptidase 4); experiment: Drug degradation assessed as recombinant human DPP4-mediated cleavage by measuring compound remaining after 24 hrs by RP-HPLC analysis; format: ADME; conditions: read-out: Stability
[10] = molecular target: T1, DPP4 (dipeptidyl peptidase 4); experiment: Drug degradation assessed as recombinant human DPP4-mediated cleavage by measuring compound remaining after 48 hrs by RP-HPLC analysis; format: ADME; conditions: read-out: Stability
[11] = molecular target: T1, DPP4 (dipeptidyl peptidase 4); experiment: Drug degradation assessed as recombinant human DPP4-mediated cleavage by measuring compound remaining after 72 hrs by RP-HPLC analysis; format: ADME; conditions: read-out: Stability
[12] = molecular target: T1, DPP4 (dipeptidyl peptidase 4); experiment: Drug degradation assessed as recombinant human DPP4-mediated cleavage by measuring compound remaining after 96 hrs by RP-HPLC analysis; format: ADME; conditions: read-out: Stability

T1 sequence (P27487 whole entry): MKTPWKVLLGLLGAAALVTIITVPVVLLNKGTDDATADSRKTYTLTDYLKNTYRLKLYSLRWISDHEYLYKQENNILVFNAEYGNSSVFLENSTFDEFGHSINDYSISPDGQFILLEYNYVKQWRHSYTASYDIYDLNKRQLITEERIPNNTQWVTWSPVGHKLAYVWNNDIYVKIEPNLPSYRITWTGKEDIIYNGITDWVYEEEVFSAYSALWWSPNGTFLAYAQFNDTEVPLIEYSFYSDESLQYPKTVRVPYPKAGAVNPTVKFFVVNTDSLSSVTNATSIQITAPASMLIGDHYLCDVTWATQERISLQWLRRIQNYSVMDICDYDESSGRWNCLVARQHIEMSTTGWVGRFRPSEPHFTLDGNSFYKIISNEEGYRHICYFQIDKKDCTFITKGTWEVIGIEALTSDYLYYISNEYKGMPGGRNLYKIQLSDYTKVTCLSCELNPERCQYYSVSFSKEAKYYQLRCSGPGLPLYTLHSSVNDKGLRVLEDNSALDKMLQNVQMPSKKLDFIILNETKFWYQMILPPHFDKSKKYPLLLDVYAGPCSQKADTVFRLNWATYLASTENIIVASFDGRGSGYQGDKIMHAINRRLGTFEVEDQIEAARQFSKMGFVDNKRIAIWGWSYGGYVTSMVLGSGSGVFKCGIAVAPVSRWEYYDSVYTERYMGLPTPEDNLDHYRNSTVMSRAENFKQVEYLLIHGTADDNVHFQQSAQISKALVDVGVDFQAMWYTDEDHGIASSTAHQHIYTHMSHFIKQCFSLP
Sequence of Glucagon-like peptide 1 receptor (P43220 whole entry): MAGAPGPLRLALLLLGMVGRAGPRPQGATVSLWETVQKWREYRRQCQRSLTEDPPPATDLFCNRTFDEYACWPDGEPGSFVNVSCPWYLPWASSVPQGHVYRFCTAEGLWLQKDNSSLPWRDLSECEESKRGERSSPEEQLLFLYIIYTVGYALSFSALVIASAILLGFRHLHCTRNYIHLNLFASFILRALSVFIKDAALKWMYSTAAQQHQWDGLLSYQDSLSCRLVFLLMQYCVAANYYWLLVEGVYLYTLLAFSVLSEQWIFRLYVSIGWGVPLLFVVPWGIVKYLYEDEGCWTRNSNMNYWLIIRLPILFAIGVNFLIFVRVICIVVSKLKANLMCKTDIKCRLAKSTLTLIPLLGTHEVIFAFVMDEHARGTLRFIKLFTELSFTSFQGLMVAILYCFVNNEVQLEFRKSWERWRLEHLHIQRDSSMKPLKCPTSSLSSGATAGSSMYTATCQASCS

Compound | EC50 [1] | half-life [2] | Retention_time [3] | remaining at 1 h [4] | remaining at 2 h [5] | remaining at 4 h [6] | remaining at 8 h [7] | remaining at 12 h [8] | EC50 ([1]; hek293) | remaining at 24 h [9] | remaining at 48 h [10] | remaining at 72 h [11] | remaining at 96 h [12]
CC[C@H](C)[C@H](NC(=O)[C@H](Cc1ccccc1)NC(=O)[C@H](CCC(=O)O)NC(=O)[C@H](CCCCN)NC(=O)[C@H](C)NC(=O)[C@H](C)NC(=O)[C@H](CCC(N)=O)NC(=O)CNC(=O)[C@H](CCC(=O)O)NC(=O)[C@H](CC(C)C)NC(=O)[C@H](Cc1ccc(O)cc1)NC(=O)[C@H](CO)NC(=O)[C@H](CO)NC(=O)[C@@H](NC(=O)[C@H](CC(=O)O)NC(=O)[C@H](CO)NC(=O)[C@@H](NC(=O)[C@H](Cc1ccccc1)NC(=O)[C@@H](NC(=O)CNC(=O)[C@H](CCC(=O)O)NC(=O)C[C@H](C)NC(=O)[C@@H](N)Cc1cnc[nH]1)[C@@H](C)O)[C@@H](C)O)C(C)C)C(=O)N[C@@H](C)C(=O)N[C@@H](Cc1c[nH]c2ccccc12)C(=O)N[C@@H](CC(C)C)C(=O)N[C@H](C(=O)N[C@@H](CCCCN)C(=O)NCC(=O)N[C@@H](CCCNC(=N)N)C(=O)O)C(C)C |  | > 4 days | 14.536 min | 100% | 100% | 100% | 100% | 100% |  | 100% | 100% | 100% | 100%
CC[C@H](C)[C@H](NC(=O)[C@H](Cc1ccccc1)NC(=O)[C@H](CCC(=O)O)NC(=O)[C@H](CCCCN)NC(=O)[C@H](C)NC(=O)[C@H](C)NC(=O)[C@H](CCC(N)=O)NC(=O)CNC(=O)[C@H](CCC(=O)O)NC(=O)[C@H](CC(C)C)NC(=O)[C@H](Cc1ccc(O)cc1)NC(=O)[C@H](CO)NC(=O)[C@H](CO)NC(=O)[C@@H](NC(=O)[C@H](CC(=O)O)NC(=O)[C@H](CO)NC(=O)[C@@H](NC(=O)[C@H](Cc1ccccc1)NC(=O)[C@@H](NC(=O)CNC(=O)C[C@@H](CCC(=O)O)NC(=O)[C@H](C)NC(=O)[C@@H](N)Cc1cnc[nH]1)[C@@H](C)O)[C@@H](C)O)C(C)C)C(=O)N[C@@H](C)C(=O)N[C@@H](Cc1c[nH]c2ccccc12)C(=O)N[C@@H](CC(C)C)C(=O)N[C@H](C(=O)N[C@@H](CCCCN)C(=O)NCC(=O)N[C@@H](CCCNC(=N)N)C(N)=O)C(C)C |  | 4 days | 14.669 min |  |  |  |  | 82.9% |  | 72.7% | 61.3% | 54% | 41.7%

Now from value to compound:

EC50 [1] | half-life [2] | Retention_time [3] | remaining at 1 h [4] | remaining at 2 h [5] | remaining at 4 h [6] | remaining at 8 h [7] | remaining at 12 h [8] | EC50 ([1]; hek293) | remaining at 24 h [9] | remaining at 48 h [10] | remaining at 72 h [11] | remaining at 96 h [12] | Compound
0.0636 nM | 0.0996 days | 14.566 min | 74.8% | 57.5% | 34.8% | 14.9% | 7.5% |  |  |  |  |  | CC[C@H](C)[C@H](NC(=O)[C@H](Cc1ccccc1)NC(=O)[C@H](CCC(=O)O)NC(=O)[C@H](CCCCN)NC(=O)[C@H](C)NC(=O)[C@H](C)NC(=O)[C@H](CCC(N)=O)NC(=O)CNC(=O)[C@H](CCC(=O)O)NC(=O)[C@H](CC(C)C)NC(=O)[C@H](Cc1ccc(O)cc1)NC(=O)[C@H](CO)NC(=O)[C@H](CO)NC(=O)[C@@H](NC(=O)[C@H](CC(=O)O)NC(=O)[C@H](CO)NC(=O)[C@@H](NC(=O)[C@H](Cc1ccccc1)NC(=O)[C@@H](NC(=O)CCNC(=O)[C@H](CCC(=O)O)NC(=O)[C@H](C)NC(=O)[C@@H](N)Cc1cnc[nH]1)[C@@H](C)O)[C@@H](C)O)C(C)C)C(=O)N[C@@H](C)C(=O)N[C@@H](Cc1c[nH]c2ccccc12)C(=O)N[C@@H](CC(C)C)C(=O)N[C@H](C(=O)N[C@@H](CCCCN)C(=O)NCC(=O)N[C@@H](CCCNC(=N)N)C(N)=O)C(C)C
 | > 4 days | 13.842 min |  |  |  |  | 100% | 0.0284 nM | 100% | 100% | 100% | 100% | CC[C@H](C)[C@H](NC(=O)[C@H](Cc1ccccc1)NC(=O)[C@H](CCC(=O)O)NC(=O)[C@H](CCCCN)NC(=O)[C@H](C)NC(=O)[C@H](C)NC(=O)[C@H](CCC(N)=O)NC(=O)CNC(=O)[C@H](CCC(=O)O)NC(=O)[C@H](CC(C)C)NC(=O)[C@H](Cc1ccc(O)cc1)NC(=O)[C@H](CO)NC(=O)[C@H](CO)NC(=O)[C@@H](NC(=O)[C@H](CC(=O)O)NC(=O)[C@H](CO)NC(=O)[C@@H](NC(=O)[C@H](Cc1ccccc1)NC(=O)[C@@H](NC(=O)CNC(=O)[C@H](CCC(=O)O)NC(=O)C1(NC(=O)[C@@H](N)Cc2cnc[nH]2)CC1)[C@@H](C)O)[C@@H](C)O)C(C)C)C(=O)N[C@@H](C)C(=O)N[C@@H](Cc1c[nH]c2ccccc12)C(=O)N[C@@H](CC(C)C)C(=O)N[C@H](C(=O)N[C@@H](CCCCN)C(=O)NCC(=O)N[C@@H](CCCNC(=N)N)C(N)=O)C(C)C
 | > 4 days | 14.005 min |  |  |  |  | 100% |  | 100% | 100% | 100% | 100% | CC[C@H](C)[C@H](NC(=O)[C@H](Cc1ccccc1)NC(=O)[C@H](CCC(=O)O)NC(=O)[C@H](CCCCN)NC(=O)[C@H](C)NC(=O)[C@H](C)NC(=O)[C@H](CCC(N)=O)NC(=O)CNC(=O)[C@H](CCC(=O)O)NC(=O)[C@H](CC(C)C)NC(=O)[C@H](Cc1ccc(O)cc1)NC(=O)[C@H](CO)NC(=O)[C@H](CO)NC(=O)[C@@H](NC(=O)[C@H](CC(=O)O)NC(=O)[C@H](CO)NC(=O)[C@@H](NC(=O)[C@H](Cc1ccccc1)NC(=O)[C@@H](NC(=O)CNC(=O)[C@H](CCC(=O)O)NC(=O)[C@H](C)CNC(=O)[C@@H](N)Cc1cnc[nH]1)[C@@H](C)O)[C@@H](C)O)C(C)C)C(=O)N[C@@H](C)C(=O)N[C@@H](Cc1c[nH]c2ccccc12)C(=O)N[C@@H](CC(C)C)C(=O)N[C@H](C(=O)N[C@@H](CCCCN)C(=O)NCC(=O)N[C@@H](CCCNC(=N)N)C(N)=O)C(C)C
